Source: patent US9873702B2, “Heterocyclic compounds as biogenic amine transport modulators” (Southern Research Institute, priority 2014, dated 2018)
Where two headings read alike, the source gives them in different places.

Assays:
[1] = biological target: T1, dopamine transporter (DAT) (Rattus norvegicus, UniProt P23977); assay: Dopamine transporter-mediated [^3H]MPP^+ release, shift of D-amphetamine-induced release, rat caudate synaptosomes; assay type: biochemical; design: Freshly removed caudate was homogenized in 10% ice-cold sucrose; from tissue; host or cells: rat caudate synaptosomes
[2] = biological target: T2, serotonin transporter (SERT) (Rattus norvegicus, UniProt P31652); assay: Serotonin reuptake ([^3H]serotonin uptake) inhibition in rat brain synaptosomes; assay type: biochemical
T2 construct: Freshly removed whole brain minus cerebellum and caudate was homogenized; from tissue; host or cells: rat whole brain minus cerebellum and caudate, synaptosomes

[3] = biological target: T3, DAT (Rattus norvegicus, UniProt P23977); assay: Dopamine transporter binding, inhibition of [^3H]WIN35428 binding in rat caudate membranes; settings: for EC50: read-out: WIN Binding EC50 (μM ± SD)
T3 construct: from tissue; host or cells: rat caudate membranes
Procedure: The ability of test drugs to inhibit [^3H]WIN35428 binding to DAT in rat caudate membranes was assessed as follows. For each experiment, caudates from four rat brains were suspended in 15 mL ice cold assay buffer (50 mM sodium phosphate pH 7.4) and homogenized using a polytron (setting 6, 20 sec). The homogenate was centrifuged at 30,000×g for 10 minutes at 4° C. The pellet was resuspended with vigorous vortexing in 15 mL fresh ice cold assay buffer, and the centrifugation was repeated. The pellet was resuspended in 15 mL fresh ice cold assay buffer with vigorous vortexing followed by six strokes with a glass-on-glass hand-held homogenizer and was diluted to a final volume of 235 mL in ice cold assay buffer. [^3H]WIN35428 was diluted to 10 nM in assay buffer that contained 25 μg/mL chymostatin, 25 μg/mL leupeptin, 0.1 mM EDTA, and 0.1 mM EGTA. Each assay tube contained 0.75 mL membrane preparation, 0.15 mL test drug diluted in assay buffer containing 1 mg/mL bovine serum albumin, and 0.1 mL [^3H]WIN35428 preparation (final concentration of 1 nM). Assays were initiated by the addition of membranes and were terminated after 2 hours at 25° C. by rapid vacuum filtration. Retained tritium was measured as described. The data from three experiments were pooled and fit to a dose-response curve equation (using Kaleidagraph), to yield an Emax and EC50 value.

[4] = biological target: norepinephrine transporter (NET) (Rattus norvegicus, UniProt Q9WTR4); assay: Norepinephrine reuptake ([^3H]norepinephrine uptake) inhibition in rat brain synaptosomes; settings: for NE Uptake Emax (% I ± SD): maximal inhibition from dose-response fit
Procedure: Freshly removed whole brain minus cerebellum and caudate was homogenized in 10% ice-cold sucrose with 12 strokes of a hand-held Potter-Elvehjem homogenizer followed by centrifugation at 1000×g for 10 minutes. The supernatants were saved on ice and used immediately. Transporter activity at NET was assessed using 10 nM [^3H]norepinephrine. […] Uptake inhibition assays were conducted at 37° C. and were initiated by adding 100 μL of tissue to 900 μL assay buffer containing test drug and [^3H]norepinephrine. Test drugs were diluted in assay buffer containing 1 mg/mL bovine serum albumin. Nonspecific uptake was measured by incubating in the presence of 10 μM indatraline. The reactions were stopped after 10 minutes by rapid vacuum filtration with a cell harvester (BRANDEL) over GF/B filters (Whatman) presoaked in wash buffer maintained at 25° C. (10 mM Tris-HCl, pH 7.4/150 mM NaCl). Filters were rinsed with 6 mL wash buffer and retained tritium was quantified by a MicroBeta liquid scintillation counter (PerkinElmer) after overnight extraction in 0.6 mL of liquid scintillation cocktail (Cytoscint, ICN). The data from three experiments were pooled and fit to a dose-response curve equation (using Kaleidagraph), to yield an Emax and EC50 value.
The data from three experiments were pooled and fit to a dose-response curve equation (using KaleidaGraph; Synergy Software, Reading, Pa.) to yield an Emax and IC50 value.

[5] = biological target: T1, dopamine transporter (DAT); assay: Dopamine reuptake ([^3H]dopamine uptake) inhibition in rat brain synaptosomes
[6] = Emax of D-amphetamine for [^3H]MPP^+ release in presence of 150 nM test compound
[7] = [3H]MPP+ release, Apparent Kc = [Blocker]/((EC50-2/EC50-1) − 1), negative when shifted EC50 is less than control
[8] = apparent Ke from shift of D-amphetamine-induced [^3H]MPP^+ release, compound at the concentration of column 1, read-out: Ke App
[9] = mean ± S.D., n = 3, read-out: SERT Uptake Emax
[10] = mean ± S.D., n = 3, read-out: SERT Uptake IC50
[11] = 2 h, read-out: DAT Binding εmax
[12] = rat brain synaptosomes, 10 nM [^3H]norepinephrine
[13] = read-out: NE Uptake EC50 (nM ± SD), rat brain synaptosomes, 10 nM [^3H]norepinephrine, 10 min, 37° C.
[14] = read-out: NET Uptake IC50, mean ± S.D., n = 3
[15] = DAT Uptake IC50, [3H]DA uptake inhibition, mean ± S.D., n = 3
[16] = IC50 for DAT Uptake Inhibition, rounded value as listed in Table 10
[17] = read-out: Emax for DAT Uptake Inhibition
[18] = inhibition of [3H]WIN35428 binding, mean ± S.D., n = 3
[19] = Emax of D-amphetamine for [^3H]MPP^+ release in presence of 50 nM test compound
[20] = Emax of D-amphetamine for [^3H]MPP^+ release in presence of 250 nM test compound

T3 sequence (P23977 whole entry): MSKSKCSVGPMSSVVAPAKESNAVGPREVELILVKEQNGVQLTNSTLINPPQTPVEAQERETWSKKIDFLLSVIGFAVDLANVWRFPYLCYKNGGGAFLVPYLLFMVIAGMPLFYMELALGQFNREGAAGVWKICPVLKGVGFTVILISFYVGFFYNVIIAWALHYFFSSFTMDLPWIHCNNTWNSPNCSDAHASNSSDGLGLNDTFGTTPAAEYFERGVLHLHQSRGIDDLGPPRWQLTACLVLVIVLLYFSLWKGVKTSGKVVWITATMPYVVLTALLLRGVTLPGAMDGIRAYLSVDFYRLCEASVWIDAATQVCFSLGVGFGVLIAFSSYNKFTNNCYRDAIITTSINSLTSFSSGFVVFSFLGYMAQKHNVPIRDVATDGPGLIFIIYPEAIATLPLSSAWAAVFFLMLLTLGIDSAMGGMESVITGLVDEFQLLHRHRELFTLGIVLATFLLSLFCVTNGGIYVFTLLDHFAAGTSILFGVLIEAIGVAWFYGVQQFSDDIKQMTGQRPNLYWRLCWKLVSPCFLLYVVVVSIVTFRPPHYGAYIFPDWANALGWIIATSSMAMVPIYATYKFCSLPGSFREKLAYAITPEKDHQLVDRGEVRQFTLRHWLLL
T1 sequence (P23977 whole entry): as above
T2 sequence (P31652 whole entry): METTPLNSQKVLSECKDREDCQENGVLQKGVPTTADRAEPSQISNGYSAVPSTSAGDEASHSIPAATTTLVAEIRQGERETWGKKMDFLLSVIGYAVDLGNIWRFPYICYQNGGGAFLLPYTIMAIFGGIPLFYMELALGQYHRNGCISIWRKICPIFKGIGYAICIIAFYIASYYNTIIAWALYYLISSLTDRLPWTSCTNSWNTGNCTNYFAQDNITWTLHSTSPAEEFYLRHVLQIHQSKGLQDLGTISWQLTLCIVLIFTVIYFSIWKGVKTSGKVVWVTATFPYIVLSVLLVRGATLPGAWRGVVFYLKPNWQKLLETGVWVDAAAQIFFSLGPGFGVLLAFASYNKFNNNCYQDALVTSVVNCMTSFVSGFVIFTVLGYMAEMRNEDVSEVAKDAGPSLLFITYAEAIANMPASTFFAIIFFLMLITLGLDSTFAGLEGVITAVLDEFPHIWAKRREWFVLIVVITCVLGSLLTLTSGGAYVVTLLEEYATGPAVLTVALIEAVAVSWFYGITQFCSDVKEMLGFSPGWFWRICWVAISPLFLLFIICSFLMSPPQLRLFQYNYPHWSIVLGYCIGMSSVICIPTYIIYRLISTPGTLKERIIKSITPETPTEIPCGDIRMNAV

| SMILES | Apparent Kc [1, 7] | Kb [1, 8] | Emax [2, 9] | IC50 [2, 10] | Emax [3, 11] | NET Uptake Emax ([4]; mean ± S.D., n = 3) | NE Uptake Emax (% I ± SD) [4, 12] | IC50 [4, 13] | IC50 [4, 14] | IC50 [5, 15] | IC50 [5, 16] | Emax ([5]; read-out: DAT Uptake Emax) | Emax [5, 17] | further results |
| --- | --- | --- | --- | --- | --- | --- | --- | --- | --- | --- | --- | --- | --- | --- |
| c1ccc(C(CNc2nc(-c3cnc4nccn4c3)nc3ccccc23)C2CCCCC2)cc1 (centres unmarked) [compound 102, N-(2-Cyclohexyl-2-Phenylethyl)-2-(Imidazo[1,2-A]Pyrimidin-6-yl)Quinazolin-4-Amine] | 1600 nM | 1600 nM | 54 ± 1% | 23 ± 3 nM | 43 ± 4% | 70 ± 2% | 70 ± 2 % I | 95 ± 12 nM | 95 ± 12 nM | 6 ± 0.7 nM | 6 nM | 70 ± 1% | 70% | D-Amphetamine Emax (% ± SD) [1, 6]: 104 ± 4% |
| Cl.Fc1ccc2c(NCC(c3ccccc3)c3ccccc3)nc(-c3ccc4nccn4c3)nc2c1 [compound 124, N-(2,2-Diphenylethyl)-7-Fluoro-2-(Imidazo[1,2-A]Pyridin-6-yl)Quinazolin-4-Amine Hydrochloride] | – | – | – | 25 ± 7 nM | – | 63 ± 3% | 63 ± 3 % I | 94 ± 22 nM | 94 ± 22 nM | 7.4 ± 1.1 nM | 7 nM | 69 ± 1% | 69% | Apparent Kc [1]: 3200 nM; Kb [1]: 3200 nM; D-Amphetamine Emax (% ± SD) ([1]; Emax of D-amphetamine for [^3H]MPP^+ release in presence of 200 nM test compound): 104 ± 5%; Emax ([2]; read-out: SERT Uptake Emax): 49 ± 2%; DAT Binding IC50 [3, 18]: Inactive; DAT Binding εmax [3, 18]: Inactive |
| Cc1cc2nccn2cc1-c1nc(NCC(O)(c2ccccc2)c2ccccc2)c2ccccc2n1 [compound 152, 2-((2-(7-Methylimidazo[1,2-A]Pyridin-6-yl)Quinazolin-4-yl)Amino)-1,1-Diphenylethanol] | 46 nM | – | – | 3 ± 0.6 nM | 52 ± 8% | 69 ± 4% | – | – | 16 ± 5 nM | 1.7 ± 0.1 nM | 2 nM | 69 ± 1% | – | D-Amphetamine Emax (% ± SD) [1, 19]: 104 ± 4% |
| Cc1cc2nccn2cc1-c1nc(NCC(c2ccccc2)c2ccccc2)c2ccccc2n1 [compound 118, N-(2,2-Diphenylethyl)-2-(7-Methylimidazo[1,2-A]Pyridin-6-yl)Quinazolin-4-Amine] | 267 nM | 267 nM | 58 ± 3% | 3.2 ± 0.9 nM | 79 ± 3% | 67 ± 3% | 67 ± 3 % I | 21 ± 7 nM | 21 ± 7 nM | 0.5 ± 0.1 nM | 0.5 nM | 63 ± 2% | 63% | D-Amphetamine Emax (% ± SD) ([1]; Emax of D-amphetamine for [^3H]MPP^+ release in presence of 12.5 nM test compound): 104 ± 3% |
| CN(C)c1ccc(-c2nc(NCC(c3ccccc3)c3ccccc3)c3ccccc3n2)cn1 [compound 69, 2-(6-(Dimethylamino)Pyridin-3-yl)-N-(2,2-Diphenylethyl)Quinazolin-4-Amine] | 912 nM | 912 nM | 51 ± 2% | 42 ± 12 nM | 83 ± 3% | 71 ± 6% | 71 ± 6 % I | 147 ± 63 nM | 147 ± 63 nM | 7.3 ± 2.2 nM | 7 nM | 63 ± 3% | 63% | D-Amphetamine Emax (% ± SD) [1, 20]: 99 ± 2%; EC50 [3]: 1.2 ± 0.2 µM |
| c1ccc(C(CNc2nc(-c3cnc4nccn4c3)nc3ccccc23)c2ccccc2)cc1 [compound 89, N-(2,2-Diphenylethyl)-2-(Imidazo[1,2-A]Pyrimidin-6-yl)Quinazolin-4-Amine] | -1070 nM | – | 51 ± 1% | 4.7 ± 0.6 nM | 18 ± 4% | 69 ± 2% | 69 ± 2 % I | 63 ± 9 nM | 63 ± 9 nM | 2.1 ± 0.3 nM | 2 nM | 68 ± 1% | 68% | D-Amphetamine Emax (% ± SD) [1, 19]: 102 ± 2% |
| Cc1cc2nccn2cc1-c1nc(NCC(c2ccccc2)c2ccc[nH]2)c2ccccc2n1 (centres unmarked) [compound 140, 2-(7-Methylimidazo[1,2-A]Pyridin-6-yl)-N-(2-Phenyl-2-(1H-Pyrrol-2-yl)Ethyl)Quinazolin-4-Amine] | 55 nM | – | 54 ± 2% | 3.1 ± 0.7 nM | 91 ± 7% | 70 ± 4% | 70 ± 4 % I | 11 ± 4 nM | 11 ± 4 nM | 1.2 ± 0.1 nM | 1 nM | 69 ± 1% | 69% | D-Amphetamine Emax (% ± SD) ([1]; Emax of D-amphetamine for [^3H]MPP^+ release in presence of 25 nM test compound): 105 ± 3% |
| c1ccc(C(CNc2nc(-c3ccc4[nH]ccc4c3)nc3ccccc23)c2ccccc2)cc1 [compound 17, N-(2,2-Diphenylethyl)-2-(1H-indol-5-yl)quinazolin-4-amine] | 456 nM | 456 nM | 54 ± 2% | 68 ± 13 nM | 87 ± 4% | 70 ± 3% | 70 ± 3 % I | 290 ± 52 nM | 290 ± 52 nM | 10 ± 1 nM | 10 nM | 74 ± 1% | 74% | D-Amphetamine Emax (% ± SD) [1, 20]: 94 ± 2%; EC50 [3]: 0.9 ± 0.2 µM |
| CS(=O)(=O)Nc1ccc(-c2nc(NCC(c3ccccc3)c3ccccc3)c3ccccc3n2)cc1 [SRI-29577] | -553 nM | – | – | 20 ± 5 nM | 65 ± 6% | 71 ± 2% | – | – | 90 ± 15 nM | 4.4 ± 0.8 nM | 4 nM | – | 70% | – |
| c1ccc(C(CNc2nc(-c3cnc4nccn4c3)nc3ccccc23)c2ccncc2)cc1 (centres unmarked) [compound 110, 2-(Imidazo[1,2-A]Pyrimidin-6-yl)-N-(2-Phenyl-2-(Pyridin-4-yl)Ethyl)Quinazolin-4-Amine] | 1200 nM | 1200 nM | 51 ± 2% | 11 ± 3 nM | 25 ± 2% | 69 ± 2% | 69 ± 2 % I | 60 ± 10 nM | 60 ± 10 nM | 5.6 ± 0.8 nM | 6 nM | 64 ± 1% | 64% | D-Amphetamine Emax (% ± SD) [1, 6]: 104 ± 5% |
| c1ccc(C(CNc2nc(-c3ccc4ncnn4c3)nc3ccccc23)c2ccccc2)cc1 [compound 105, 2-([1,2,4]Triazolo[1,5-A]Pyridin-6-yl)-N-(2,2-Diphenylethyl)Quinazolin-4-Amine] | – | – | 35 ± 3% | 13 ± 6 nM | – | 40 ± 5% | 40 ± 5 % I | 86 ± 55 nM | 86 ± 55 nM | 8.8 ± 1.1 nM | 9 nM | 63 ± 1% | 63% | D-Amphetamine Emax (% ± SD) [1, 20]: 105 ± 4%; DAT Binding εmax [3, 18]: Inactive |
| CN(C)c1ncc(-c2nc(NC(c3ccccc3)c3ccccc3)c3ccccc3n2)cn1 [compound 12, N-Benzhydryl-2-(2-(dimethylamino)pyrimidin-5-yl)quinazolin-4-amine] | – | 7050 nM | – | – | – | – | 64 ± 10 % I | 1740 ± 1150 nM | – | – | – | – | – | D-Amphetamine Emax (% ± SD) ([1]; Emax of D-amphetamine for [^3H]MPP^+ release in presence of 5000 nM test compound): 98 ± 1%; IC50 ([2]; rat brain synaptosomes, 5 nM [^3H]serotonin, 30 min, 25° C., read-out: 5HT Uptake EC50 (nM ± SD)): 699 ± 164 nM; Emax ([2]; rat brain synaptosomes, 5 nM [^3H]serotonin, maximal inhibition from dose-response fit, read-out: 5HT Uptake Emax (% I ± SD)): 48 ± 3%; EC50 [3]: 1.8 ± 0.4 µM; Emax ([3]; read-out: WIN Binding Emax (% I ± SD)): 71 ± 4%; IC50 ([5]; DA Uptake EC50 (nM ± SD), rat caudate synaptosomes, 5 nM [^3H]dopamine, 15 min, 25° C., three experiments pooled): 174 ± 58 nM; Emax ([5]; read-out: DA Uptake Emax (% I ± SD)): 66 ± 4% |
